The text below walks through data of patent publication US7163940B2, “Pyrazolopyridinyl pyrimidine therapeutic compounds” (SmithKline Beecham Corporation, priority 2000, dated 2007).

The test system of the assay is HSV-1. As to the kind of experiment: HSV-1 replication in infected Vero 76 cells, viral DNA hybridization capture assay. Type of assay: cell-based. Conditions: Human alphaherpesvirus 1, Vero 76, HSV-1, Vero 76 cells, MOI=0.001, 40–48 hours incubation. The procedure:
Vero 76 cells were maintained in MEM with Earle's salts, L-glutamine, 8% FBS (Hyclone, A-1111-L) and 100 units/mL Penicillin-100 μg/mL Streptomycin. For assay conditions, FBS was reduced to 2%. Cells are seeded into 96-well tissue culture plates at a density of 5×10^4 cells/well after being incubated for 45 min at 37° C. in the presence of HSV-1 or HSV-2 (MOI=0.001). Test compounds are added to the wells and the plates are incubated at 37° C. for 40–48 hours. Cell lysates are prepared as follows: media was removed and replaced with 150 μL/well 0.2 N NaOH with 1% Igepal CA 630 or NP-40. Plates were incubated up to 14 days at room temperature in a humidified chamber to prevent evaporation. • (b) Preparation of Detection DNA.
For the detection probe, a gel-purified, digoxigenin-labeled, […] PCR fragment of the HSV UL-15 sequence was utilized. PCR conditions included 0.5 μM primers, 180 μM dTP, 20 μM dUTP-digoxigenin (Boehringer Mannheim 1558706), 200 μM each of dATP, dCTP, and dGTP, 1×PCR Buffer II (Perkin Elmer), 2.5 mM MgCl2, 0.025 units/μL of AmpliTaq Gold polymerase (Perkin Elmer), and 5 ng of gel-purified HSV DNA per 100 μL. Extension conditions were 10 min at 95° C., followed by 30 cycles of 95° C. for 1 min, 55° C. for 30 sec, and 72° C. for 2 min. The amplification was completed with a 10-min incubation at 72° C. Primers were selected to amplify a 728 bp probe spanning a section of the HSV1 UL15 open reading frame (nucleotides 249–977). Single-stranded transcripts were purified with Promega M13 Wizard kits. The final product was mixed 1:1 with a mixture of 6 M GuSCN, 100 mM EDTA and 200 μg/mL herring sperm DNA and stored at 4° C. • (c) Preparation of Capture Plates.
The capture DNA plasmid (HSV UL13 region in pUC) was linearized by cutting with Xba I, denatured for 15 min at 95° C. and diluted immediately into Reacti-Bind DNA Coating Solution (Pierce, 17250, diluted 1:1 with TE buffer, pH 8) at 1 ng/μL 75 μL/well were added to Corning (#3922 or 9690) white 96-well plates and incubated at room temperature for at least 4 hrs before washing twice with 300 μL/well 0.2×SSC/0.05% Tween-20 (SSC/T buffer). The plates were then incubated overnight at room temperature with 150 μL/well 0.2 N NaOH, 1% IGEPAL and 10 μg/mL herring sperm DNA. • (d) Hybridization.
Twenty-seven (27) μL of cell lysate was combined with 45 μL of hybridization solution (final concentration: 3M GuSCN, 50 mM EDTA, 100 μg/ml salmon sperm DNA, 5× Denhardt's solution, 0.25×APE, and 5 ng of the digoxigenin-labeled detection probe). APE is 1.5 M NH4-acetate, 0.15 M ammonium phosphate, and 5 mM EDTA adjusted to pH 6.0. Mineral oil (50 μL) was added to prevent evaporation. The hybridization plates were incubated at 95° C. for 10 minutes to denature the DNA, then incubated at 42° C. overnight. The wells were washed 6× with 300 μL/well SSC/T buffer then incubated with 75 μL/well anti-digoxigenin-HRP-conjugated antibody (Boehringer Mannheim 1207733, 1:5000 in TE) for 30 min at room temperature. The wells were washed 6× with 300 μL/well with PBS/0.05% Tween-20 before 75 μL/well SuperSignal LBA substrate (Pierce) was added. The plates were incubated at room temperature for 30 minutes and chemiluminescence was measured in a Wallac Victor reader. • e) Results.
The following results were obtained for HSV-1.
For `Fc1ccc(-c2nn3c(Cl)cccc3c2-c2ccnc(NC3CCCC3)n2)cc1` [Example 26, 4-[7-Chloro-2-(4-fluorophenyl)pyrazolo[1,5-α]pyridin-3-yl]-N-cyclopentyl-2-pyrimidinamine], the IC50 worked out at 1.5 µM. In the case of `O=C(O)c1cc(-c2c(-c3ccc(F)cc3)nn3c(Cl)cccc23)nc(NC2CCCC2)n1` [Example 27, 6-[7-Chloro-2-(4-fluorophenyl)pyrazolo[1,5-α]pyridin-3-yl]-2-(cyclopentylamino)-4-pyrimidinecarboxylic acid] it was 1.3 µM; in that of `Fc1ccc(-c2nn3c(NC4CCCC4)cccc3c2-c2ccncc2)cc1` [Example 28, N-cyclopentyl-2-(4-fluorophenyl)-3-(4-pyridinyl)pyrazolo[1,5-α]pyridin-7-amine], 2 µM. Regarding `Fc1ccc(-c2nn3c(NC4CCCC4)cccc3c2-c2ccnc(NC3CCCC3)c2)cc1` [Example 29, N-Cyclopentyl-3-[2-(cyclopentylamino)-4-pyridinyl]-2-(4-fluorophenyl)pyrazolo[1,5-α]pyridin-7-amine], the IC50 amounted to 0.3 µM. The compound `NNc1cc(-c2c(-c3ccc(F)cc3)nn3c(NC4CCCC4)cccc23)ccn1` [Example 30, N-Cyclopentyl-2-(4-fluorophenyl)-3-(2-hydrazino-4-pyridinyl)pyrazolo[1,5-α]pyridin-7-amine] showed an IC50 of 5 µM. With `Fc1ccc(-c2nn3c(N4CCCC4)cccc3c2-c2ccnc(NC3CCCC3)n2)cc1` [Example 31, N-Cyclopentyl-4-[2-(4-fluorophenyl)-7-(1-pyrrolidinyl)pyrazolo[1,5-α]pyridin-3-yl]-2-pyrimidinamine] the figure was 1 µM; with `CN(C)c1nccc(-c2c(-c3ccc(F)cc3)nn3c(N4CCCC4)cccc23)n1` [Example 32, 4-[2-(4-Fluorophenyl)-7-(1-pyrrolidinyl)pyrazolo[1,5-α]pyridin-3-yl]-N,N-dimethyl-2-pyrimidinamine], 5 µM; with `CCCCNc1nccc(-c2c(-c3ccc(F)cc3)nn3c(NC4CC4)cccc23)n1` [Example 33, 3-[2-(Butylamino)-4-pyrimidinyl]-N-cyclopropyl-2-(4-fluorophenyl)pyrazolo[1,5-α]pyridin-7-amine], 0.2 µM. As for `CCCCNc1nccc(-c2c(-c3ccc(F)cc3)nn3c(N(C)C)cccc23)n1` [Example 34, 3-[2-(Butylamino)-4-pyrimidinyl]-2-(4-fluorophenyl)-N,N-dimethylpyrazolo[1,5-α]pyridin-7-amine], the IC50 was found to be 0.3 µM. In the case of `CCCCNc1nccc(-c2c(-c3ccc(F)cc3)nn3c(N4CCN(C)CC4)cccc23)n1` [Example 35, N-Butyl-4-[2-(4-fluorophenyl)-7-(4-methyl-1-piperazinyl)pyrazolo[1,5-α]pyridin-3-yl]-2-pyrimidinamine] it was 0.9 µM; in that of `CCCCNc1nccc(-c2c(-c3ccc(F)cc3)nn3c(N4CCOCC4)cccc23)n1` [Example 36, N-Butyl-4-[2-(4-fluorophenyl)-7-(4-morpholinyl)pyrazolo[1,5-α]pyridin-3-yl]-2-pyrimidinamine], 0.8 µM; in that of `CCCCNc1cccc2c(-c3ccnc([S+](C)[O-])n3)c(-c3ccc(F)cc3)nn12` (stereo not drawn) [Example 37, N-Butyl-2-(4-fluorophenyl)-3-[2-(methylsulfinyl)-4-pyrimidinyl]-pyrazolo[1,5-α]pyridin-7-amine], 15 µM. `CCCCNc1cccc2c(-c3ccnc(NCCCO)n3)c(-c3ccc(F)cc3)nn12` [Example 38, 3-({4-[7-(Butylamino)-2-(4-fluorophenyl)pyrazolo[1,5-α]pyridin-3-yl]-2-pyrimidinyl}amino)-1-propanol] returned an IC50 of 5 µM. For `C=CCNc1nccc(-c2c(-c3ccc(F)cc3)nn3c(NCCCC)cccc23)n1` [Example 39, 3-[2-(Allylamino)-4-pyrimidinyl]-N-butyl-2-(4-fluorophenyl)pyrazolo-[1,5-α]pyridin-7-amine], the IC50 was determined as 1 µM. Compound `CCCCNc1cccc2c(-c3ccnc(N4CCOCC4)n3)c(-c3ccc(F)cc3)nn12` [Example 40, N-Butyl-2-(4-fluorophenyl)-3-[2-(4-morpholinyl)-4-pyrimidinyl]pyrazolo[1,5-α]pyridin-7-amine] returned an IC50 of 15 µM. Turning to `CCCCNc1cccc2c(-c3ccnc(N4CCN(CCO)CC4)n3)c(-c3ccc(F)cc3)nn12` [Example 41, 2-(4-{4-[7-(Butylamino)-2-(4-fluorophenyl)pyrazolo[1,5-α]pyridin-3-yl]-2-pyrimidinyl}-1-piperazinyl)ethanol], the IC50 was determined as 6 µM. In turn, `CCCCNc1cccc2c(-c3ccnc(N4CCN(CCOC)CC4)n3)c(-c3ccc(F)cc3)nn12` [Example 42, N-Butyl-2-(4-fluorophenyl)-3-{2-[4-(2-methoxyethyl)-1-piperazinyl]-4-pyrimidinyl}pyrazolo[1,5-α]pyridin-7-amine] returned an IC50 of 10 µM.

`CCCCNc1cccc2c(-c3ccnc(NCc4ccccn4)n3)c(-c3ccc(F)cc3)nn12` [Example 43, N-Butyl-2-(4-fluorophenyl)-3-{2-[(2-pyridinylmethyl)amino]-4-pyrimidinyl}pyrazolo[1,5-α]pyridin-7-amine] displayed an IC50 of 3 µM. In turn, `CCCCNc1cccc2c(-c3ccnc(NCCCn4ccnc4)n3)c(-c3ccc(F)cc3)nn12` [Example 44, N-Butyl-2-(4-fluorophenyl)-3-(2-{[3-(1H-imidazol-1-yl)propyl]amino}-4-pyrimidinyl)pyrazolo[1,5-α]pyridin-7-amine] returned an IC50 of 4 µM. For the compound `CCCCNc1cccc2c(-c3ccnc(NCCN4CCOCC4)n3)c(-c3ccc(F)cc3)nn12` [Example 45, N-Butyl-2-(4-fluorophenyl)-3-(2-{[2-(4-morpholinyl)ethyl]amino}-4-pyrimidinyl)pyrazolo[1,5-α]pyridin-7-amine], the half-maximal inhibitory concentration (IC50) came to 5 µM. In turn, `CCCCNc1cccc2c(-c3ccnc(OCCN4CCOCC4)n3)c(-c3ccc(F)cc3)nn12` [Example 46, N-Butyl-2-(4-fluorophenyl)-3-{2-[2-(4-morpholinyl)ethoxy]-4-pyrimidinyl}pyrazolo[1,5-α]pyridin-7-amine] returned an IC50 of 7 µM.

Compound `CCCCNc1nccc(-c2c(-c3ccc(F)cc3)nn3c(NCCN4CCOCC4)cccc23)n1` [Example 47, 3-[2-(Butylamino)-4-pyrimidinyl]-2-(4-fluorophenyl)-N-[2-(4-morpholinyl)ethyl]pyrazolo[1,5-α]pyridin-7-amine] returned an IC50 of 0.4 µM. With `CCCCNc1nccc(-c2c(-c3ccc(F)cc3)nn3c(NCCOC)cccc23)n1` [Example 48, 3-[2-(Butylamino)-4-pyrimidinyl]-2-(4-fluorophenyl)-N-(2-methoxyethyl)pyrazolo[1,5-α]pyridin-7-amine] the figure was 0.3 µM; with `CCCCNc1nccc(-c2c(-c3ccc(F)cc3)nn3c(NC)cccc23)n1` [Example 49, 3-[2-(Butylamino)-4-pyrimidinyl]-2-(4-fluorophenyl)-N-methylpyrazolo[1,5-α]pyridin-7-amine], 1.2 µM. In the case of `CN(C)Cc1cc(-c2c(-c3ccc(F)cc3)nn3c(NC4CCCC4)cccc23)nc(NC2CCCC2)n1` [Example 51, N-Cyclopentyl-3-{2-(cyclopentylamino)-6-[(dimethylamino)methyl]-4-pyrimidinyl}-2-(4-fluorophenyl)pyrazolo[1,5-α]pyridin-7-amine], the IC50 came out at 5 µM.

In turn, `Cc1cnc(NC2CCCC2)nc1-c1c(-c2ccc(F)cc2)nn2c(NC3CCCC3)cccc12` [Example 53, N-Cyclopentyl-3-[2-(cyclopentylamino)-5-methyl-4-pyrimidinyl]-2-(4-fluorophenyl)pyrazolo[1,5-α]pyridin-7-amine] came in with an IC50 of 1 µM.

What is called IC50 is the concentration that inhibits the measured activity by half. Higher therefore signals a need for much substance.
